Source: patent US20150374709A1, “TETRA-SUBSTITUTED NDGA DERIVATIVES VIA ETHER BONDS AND CARBAMATE BONDS AND THEIR SYNTHESIS AND PHARMACEUTICAL USE” (ERIMOS PHARMACEUTICALS LLC, priority 2006, published 2015)

Key:
[1] = system: Breast Cancer cell lines; assay: NCI DTP human tumor cell line screen, breast cancer panel; assay type: cell-based; conditions: Breast Cancer (6 cell lines)
From the text: The United States National Cancer Institute (NCI) provides a developmental therapeutics program (DTP) (http://dtp.nci.nih.gov/branches/btb/ivelsp.html) to screen submitted substances in support of cancer drug discovery. The In Vitro Cell Line Screening Project (IVCLSP) is a dedicated service providing direct support to the DTP anticancer drug discovery program and is designed to screen up to 3,000 compounds per year for potential anticancer activity. The operation of this screen utilizes 60 different human tumor cell lines, representing leukemia, melanoma and cancers of the lung, colon, brain, ovary, breast, prostate, and kidney. The aim is to prioritize for farther evaluation, synthetic compounds or natural product samples showing selective growth inhibition or cell killing of particular tumor cell lines. This screen is unique in that the complexity of a 60 cell line dose response produced by a given compound results in a biological response pattern which can be utilized in pattern recognition algorithms (COMPARE program. See: http://dtp.nci.nih.gov/docs/compare/compare.html). Using these algorithms, it is possible to assign a putative mechanism of action to a test compound, or to determine that the response pattern is unique and not similar to that of any of the standard prototype compounds included in the NCI database. […]

[2] = system: TAT-mediated transactivation of HIV transcription (HIV-1 LTR promoter); assay: SEAP assay of TAT-mediated transactivation (antiviral activity); assay type: cell-based, human immunodeficiency virus (HIV); conditions: Human immunodeficiency virus 1, COS-7, 48 h, read-out: SEAP EC50
Procedure: Antiviral activity is determined using a SEAP (SEcreted Alkaline Phosphatase) assay, in which cells are co-transfected with SEAP and TAT plasmids. TAT is a transactivator, human immunodeficiency virus (HIV) gene expression and is one of the two or more necessary viral regulatory factors (TAT and REV) for HIV gene expression. TAT acts iv binding to the TAR RNA element and activating transcription from the long terminal repeat (LTR) promoter. […] Previous studies have shown that TAT mediates reduction of antibody-dependent T cell proliferation, contributing substantially to the failure of the immune response. TAT also directly stimulates Kaposi's cell growth.
Since TAT has no apparent cellular homologs, this strong positive regulator has become an attractive target for the development of anti-AIDS drugs. In contrast to currently available HIV reverse transcriptase inhibitors (AZT, DDI) or potential protease inhibitors that prevent new rounds of infection, an inhibitor which suppresses viral gene TAT regulated expression of integrated proviral DNA will arrest the virus at an early stage (Hsu et al., Science 254:1799-1802, 1991). Efforts aimed at the elucidation of factors which control gene expression at transcriptional and post-transcriptional levels in host eukaryotes have recently made possible quantitative assessment of TAT function (Sim, Ann. N.Y. Acad. Sci. 616: 64-70, 1990). To screen for inhibitors for TAT regulated transactivation (TAT-TRS), the SEAP reporter gene is put under the control of HIV-1 LTR promoter in the plasmid pBC12/HIV/SEAP. The TAT-coded activity is supplied by a second plasmid construct pBC12/CMV/t2. Transient co-transfection of COS-7 cells with these two plasmids leads to secretion of alkaline phosphatase into the culture medium which is analyzed by a simple colorimetric assay (Berger et al., Gene 66: 1-10, 1988). […]
In the SEAP assay, an inhibitor should cause reduction of SEAP reporter gene expression via transactivation of the HIV-1 LTR promoter by TAT protein (TAT-TRS). […] SEAP is detected colorimetrically by the para-nitrophenyl phosphate substrate at 405 nm. […] The cells are analyzed by the MTT assay to compare cytotoxicity to SEAP inhibition. […]
COS-7 (green monkey kidney) cells were co-transfected using Fugene 6 reagent (Roche Applied Science, Cat. No. 11815091001, Indianapolis, Ind., USA) with two plasmids: pHIVSEAP (SEAP expression vector under the control of the HIV LTR promoter) and pCTAT (HIV TAT transcription factor expression vector under the control of a CMV (cytomegalovirus) promoter). After test compound treatment for 48 hours, samples were analyzed for […] at 405 nm after addition of the p-nitrophenyl phosphate substrate. The percentage of SEAP activity inhibition was calculated in relation to the placebo control.

C[C@H](Cc1ccc(OCCCN2CCCCC2)c(OCCCN2CCCCC2)c1)[C@@H](C)Cc1ccc(OCCCN2CCCCC2)c(OCCCN2CCCCC2)c1 [Compound A, 1,4-bis{3,4-bis[3-(piperidin-1-yl)propoxy]phenyl}-2,3-dimethyl-(2R,3S)-butane]
Mean Growth Percent at 10 μM [1]: −67.95%
EC50 [2]: 500 to 1000 nM
